Source: the supplement of paper PMC12076712

Experiments:
Experiment in all cases: pIC50, kinobeads binding competition
[1] = biological target: UniProt Q9HBH9
In short: (§1)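 To obtain pIC50, fold changes versus vehicle were fitted to logistic dose-response curves (R drc package) across biological duplicates. Protein binding to Kinobeads was quantified by TMT10 LC-MS/MS of digested bead-bound proteins. Treatments used nine concentrations with a top of 30 μM, applied to live Jurkat cells in 1:4 steps for 60 min at 37 °C before lysis, or to Jurkat lysate or a 1:1:1:1 HEK293/K-562/HepG2/placenta lysate mix in 1:5 steps for 60 min at 4 °C.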

[2] = biological target: CDK9 (UniProt P50750)
Sequence of CDK9 (P50750 whole entry): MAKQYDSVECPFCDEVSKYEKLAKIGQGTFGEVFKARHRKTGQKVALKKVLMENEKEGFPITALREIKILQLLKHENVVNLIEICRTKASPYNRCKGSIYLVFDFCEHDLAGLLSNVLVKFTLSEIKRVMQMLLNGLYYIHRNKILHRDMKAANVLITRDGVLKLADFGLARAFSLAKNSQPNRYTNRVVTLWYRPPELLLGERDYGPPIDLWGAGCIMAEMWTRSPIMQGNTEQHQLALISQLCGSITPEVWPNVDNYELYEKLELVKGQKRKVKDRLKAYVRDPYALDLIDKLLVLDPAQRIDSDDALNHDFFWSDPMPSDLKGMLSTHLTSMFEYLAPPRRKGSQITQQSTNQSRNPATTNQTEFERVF
In short: as §1

[3] = biological target: UniProt Q9BVS4
Sequence of UniProt Q9BVS4 (Q9BVS4 whole entry, looked up): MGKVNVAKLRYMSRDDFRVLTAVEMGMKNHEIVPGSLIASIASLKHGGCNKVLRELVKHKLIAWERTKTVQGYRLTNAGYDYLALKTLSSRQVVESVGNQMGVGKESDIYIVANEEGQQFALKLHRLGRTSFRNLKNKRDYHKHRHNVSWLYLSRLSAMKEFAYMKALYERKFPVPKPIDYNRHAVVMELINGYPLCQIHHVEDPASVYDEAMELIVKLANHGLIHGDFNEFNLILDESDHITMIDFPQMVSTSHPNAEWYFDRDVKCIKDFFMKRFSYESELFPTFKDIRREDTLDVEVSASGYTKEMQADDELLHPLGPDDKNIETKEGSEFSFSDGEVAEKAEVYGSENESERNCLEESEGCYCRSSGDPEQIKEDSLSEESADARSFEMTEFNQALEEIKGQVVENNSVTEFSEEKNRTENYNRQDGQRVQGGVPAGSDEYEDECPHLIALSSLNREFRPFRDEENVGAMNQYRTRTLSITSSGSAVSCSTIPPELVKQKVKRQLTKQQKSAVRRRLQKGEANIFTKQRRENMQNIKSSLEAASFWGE
In short: as §1

[4] = biological target: T1, JAK3 (UniProt P52333)
T1 sequence (whole entry): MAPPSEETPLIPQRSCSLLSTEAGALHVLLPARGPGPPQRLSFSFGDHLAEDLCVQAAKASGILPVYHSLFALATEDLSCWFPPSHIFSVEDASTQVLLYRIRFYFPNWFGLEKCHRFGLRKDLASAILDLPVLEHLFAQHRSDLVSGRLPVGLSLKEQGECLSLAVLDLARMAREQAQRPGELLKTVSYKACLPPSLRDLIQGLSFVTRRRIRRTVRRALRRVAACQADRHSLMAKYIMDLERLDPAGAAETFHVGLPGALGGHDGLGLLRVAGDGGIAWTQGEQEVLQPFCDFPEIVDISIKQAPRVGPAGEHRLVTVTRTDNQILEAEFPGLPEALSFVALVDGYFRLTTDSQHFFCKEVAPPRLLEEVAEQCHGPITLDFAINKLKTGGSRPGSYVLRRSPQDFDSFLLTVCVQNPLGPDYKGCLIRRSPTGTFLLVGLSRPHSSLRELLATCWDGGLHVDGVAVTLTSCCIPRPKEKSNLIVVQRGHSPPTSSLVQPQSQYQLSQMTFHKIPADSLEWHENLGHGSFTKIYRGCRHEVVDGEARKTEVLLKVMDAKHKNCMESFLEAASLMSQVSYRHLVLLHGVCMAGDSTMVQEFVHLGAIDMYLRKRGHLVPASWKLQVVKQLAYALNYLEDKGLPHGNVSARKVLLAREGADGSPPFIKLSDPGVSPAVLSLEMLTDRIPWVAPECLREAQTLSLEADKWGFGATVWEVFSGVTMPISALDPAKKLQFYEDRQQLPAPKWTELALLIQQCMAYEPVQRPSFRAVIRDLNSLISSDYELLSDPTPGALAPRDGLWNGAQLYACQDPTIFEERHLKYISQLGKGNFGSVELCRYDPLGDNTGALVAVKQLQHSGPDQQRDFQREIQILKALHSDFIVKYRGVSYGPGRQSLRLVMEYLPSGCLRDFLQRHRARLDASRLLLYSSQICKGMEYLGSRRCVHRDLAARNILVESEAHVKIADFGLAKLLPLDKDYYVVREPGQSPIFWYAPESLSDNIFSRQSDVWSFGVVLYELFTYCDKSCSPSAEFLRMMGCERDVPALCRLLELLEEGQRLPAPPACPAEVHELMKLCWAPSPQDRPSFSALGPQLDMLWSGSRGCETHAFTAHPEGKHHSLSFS
In short: as §1

[5] = biological target: TESK2 (UniProt Q96S53)
Sequence of TESK2 (Q96S53 whole entry, looked up): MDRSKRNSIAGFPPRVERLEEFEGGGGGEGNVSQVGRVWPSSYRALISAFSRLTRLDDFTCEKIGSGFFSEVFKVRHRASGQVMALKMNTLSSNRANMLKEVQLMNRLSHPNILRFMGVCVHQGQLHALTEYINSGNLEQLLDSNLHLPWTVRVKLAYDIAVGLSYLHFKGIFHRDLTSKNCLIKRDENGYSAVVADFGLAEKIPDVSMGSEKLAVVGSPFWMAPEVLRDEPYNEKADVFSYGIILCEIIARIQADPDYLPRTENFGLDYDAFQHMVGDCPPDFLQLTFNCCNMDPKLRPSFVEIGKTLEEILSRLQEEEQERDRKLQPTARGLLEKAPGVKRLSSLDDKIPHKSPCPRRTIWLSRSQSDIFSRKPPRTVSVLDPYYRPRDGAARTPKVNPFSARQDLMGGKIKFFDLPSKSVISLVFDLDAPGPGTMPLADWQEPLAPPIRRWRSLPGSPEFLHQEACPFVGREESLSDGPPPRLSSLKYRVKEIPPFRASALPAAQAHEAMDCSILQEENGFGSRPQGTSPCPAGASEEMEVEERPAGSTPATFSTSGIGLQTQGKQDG
In short: as §1

[6] = biological target: T2, UniProt Q9Y2U5
T2 sequence (whole entry): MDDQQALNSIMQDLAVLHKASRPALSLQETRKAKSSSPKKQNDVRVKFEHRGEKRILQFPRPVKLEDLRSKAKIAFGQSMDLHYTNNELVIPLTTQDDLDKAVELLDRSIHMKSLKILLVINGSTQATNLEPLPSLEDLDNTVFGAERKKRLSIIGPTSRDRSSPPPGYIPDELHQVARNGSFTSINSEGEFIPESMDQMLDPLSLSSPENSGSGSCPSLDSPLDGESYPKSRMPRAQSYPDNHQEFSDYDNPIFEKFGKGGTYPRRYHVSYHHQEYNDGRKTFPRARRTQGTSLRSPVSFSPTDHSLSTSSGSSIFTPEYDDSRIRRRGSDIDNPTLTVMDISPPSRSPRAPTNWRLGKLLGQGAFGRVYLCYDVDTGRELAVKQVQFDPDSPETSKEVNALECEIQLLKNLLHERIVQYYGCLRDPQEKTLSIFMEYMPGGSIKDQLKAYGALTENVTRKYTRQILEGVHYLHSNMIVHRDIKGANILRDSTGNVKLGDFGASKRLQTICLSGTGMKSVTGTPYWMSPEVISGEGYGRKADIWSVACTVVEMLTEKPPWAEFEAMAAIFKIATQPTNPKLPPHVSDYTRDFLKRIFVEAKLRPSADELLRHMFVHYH
In short: as §1

[7] = biological target: T3, TNK1 (UniProt Q13470); conditions: cell material: Lysate mix
T3 sequence (whole entry): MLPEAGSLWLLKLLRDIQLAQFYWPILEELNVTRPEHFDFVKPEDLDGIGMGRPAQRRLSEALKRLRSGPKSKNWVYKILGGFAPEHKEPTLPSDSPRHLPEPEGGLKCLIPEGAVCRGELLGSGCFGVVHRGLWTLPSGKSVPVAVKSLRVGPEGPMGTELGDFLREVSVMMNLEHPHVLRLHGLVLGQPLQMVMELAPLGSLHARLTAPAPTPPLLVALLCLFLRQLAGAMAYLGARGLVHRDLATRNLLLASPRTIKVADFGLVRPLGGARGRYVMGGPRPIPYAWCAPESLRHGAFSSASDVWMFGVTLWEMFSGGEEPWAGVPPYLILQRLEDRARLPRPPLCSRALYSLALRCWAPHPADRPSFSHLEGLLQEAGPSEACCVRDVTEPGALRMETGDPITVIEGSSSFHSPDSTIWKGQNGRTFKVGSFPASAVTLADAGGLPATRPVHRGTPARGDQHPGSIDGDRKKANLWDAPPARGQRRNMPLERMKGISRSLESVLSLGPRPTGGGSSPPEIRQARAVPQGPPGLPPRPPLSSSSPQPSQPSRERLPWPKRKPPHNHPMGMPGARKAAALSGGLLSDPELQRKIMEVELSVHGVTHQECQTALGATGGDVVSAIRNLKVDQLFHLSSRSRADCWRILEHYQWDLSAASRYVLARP
In short: as §1

[8] = biological target: PRKCQ (UniProt Q04759)
Sequence of PRKCQ (Q04759 whole entry, looked up): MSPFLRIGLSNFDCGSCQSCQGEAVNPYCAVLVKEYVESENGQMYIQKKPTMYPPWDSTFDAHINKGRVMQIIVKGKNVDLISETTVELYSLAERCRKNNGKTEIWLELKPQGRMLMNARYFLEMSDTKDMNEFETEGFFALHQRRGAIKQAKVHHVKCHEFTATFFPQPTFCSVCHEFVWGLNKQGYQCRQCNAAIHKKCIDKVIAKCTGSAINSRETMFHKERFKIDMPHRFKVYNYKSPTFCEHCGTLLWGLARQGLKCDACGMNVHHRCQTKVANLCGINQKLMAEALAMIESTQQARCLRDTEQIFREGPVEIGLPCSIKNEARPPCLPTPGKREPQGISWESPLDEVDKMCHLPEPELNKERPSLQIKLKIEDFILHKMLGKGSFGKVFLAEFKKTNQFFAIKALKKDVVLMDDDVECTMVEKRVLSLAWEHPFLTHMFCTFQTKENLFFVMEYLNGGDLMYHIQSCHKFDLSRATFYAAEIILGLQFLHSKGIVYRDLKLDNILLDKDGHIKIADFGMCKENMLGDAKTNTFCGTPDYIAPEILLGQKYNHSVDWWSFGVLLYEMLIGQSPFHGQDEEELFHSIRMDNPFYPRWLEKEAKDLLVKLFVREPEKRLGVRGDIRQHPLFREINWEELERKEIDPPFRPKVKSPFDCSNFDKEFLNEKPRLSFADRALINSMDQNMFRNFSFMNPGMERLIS
In short: as §1

[9] = biological target: BRAF (UniProt P15056)
Sequence of BRAF (P15056 whole entry): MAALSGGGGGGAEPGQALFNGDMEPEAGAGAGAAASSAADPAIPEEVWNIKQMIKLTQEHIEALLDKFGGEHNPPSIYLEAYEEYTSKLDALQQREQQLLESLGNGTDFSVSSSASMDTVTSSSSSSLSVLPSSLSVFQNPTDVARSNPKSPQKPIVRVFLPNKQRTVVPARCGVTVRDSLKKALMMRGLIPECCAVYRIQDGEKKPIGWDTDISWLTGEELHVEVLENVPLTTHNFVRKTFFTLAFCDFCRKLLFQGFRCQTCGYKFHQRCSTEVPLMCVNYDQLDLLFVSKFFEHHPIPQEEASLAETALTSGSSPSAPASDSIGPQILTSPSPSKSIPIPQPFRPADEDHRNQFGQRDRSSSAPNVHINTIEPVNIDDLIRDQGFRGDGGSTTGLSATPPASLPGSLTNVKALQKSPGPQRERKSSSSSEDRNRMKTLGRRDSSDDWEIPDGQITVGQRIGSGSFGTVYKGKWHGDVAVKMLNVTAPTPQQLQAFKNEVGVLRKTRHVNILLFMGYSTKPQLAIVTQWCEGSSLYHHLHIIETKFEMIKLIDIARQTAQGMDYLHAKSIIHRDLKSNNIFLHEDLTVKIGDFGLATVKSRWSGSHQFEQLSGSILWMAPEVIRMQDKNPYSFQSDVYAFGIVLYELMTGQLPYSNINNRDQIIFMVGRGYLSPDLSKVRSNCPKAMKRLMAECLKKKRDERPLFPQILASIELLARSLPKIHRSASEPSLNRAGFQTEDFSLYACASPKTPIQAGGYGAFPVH
In short: as §1

[10] = biological target: TAOK3 (UniProt Q9H2K8)
Sequence of TAOK3 (Q9H2K8 whole entry, looked up): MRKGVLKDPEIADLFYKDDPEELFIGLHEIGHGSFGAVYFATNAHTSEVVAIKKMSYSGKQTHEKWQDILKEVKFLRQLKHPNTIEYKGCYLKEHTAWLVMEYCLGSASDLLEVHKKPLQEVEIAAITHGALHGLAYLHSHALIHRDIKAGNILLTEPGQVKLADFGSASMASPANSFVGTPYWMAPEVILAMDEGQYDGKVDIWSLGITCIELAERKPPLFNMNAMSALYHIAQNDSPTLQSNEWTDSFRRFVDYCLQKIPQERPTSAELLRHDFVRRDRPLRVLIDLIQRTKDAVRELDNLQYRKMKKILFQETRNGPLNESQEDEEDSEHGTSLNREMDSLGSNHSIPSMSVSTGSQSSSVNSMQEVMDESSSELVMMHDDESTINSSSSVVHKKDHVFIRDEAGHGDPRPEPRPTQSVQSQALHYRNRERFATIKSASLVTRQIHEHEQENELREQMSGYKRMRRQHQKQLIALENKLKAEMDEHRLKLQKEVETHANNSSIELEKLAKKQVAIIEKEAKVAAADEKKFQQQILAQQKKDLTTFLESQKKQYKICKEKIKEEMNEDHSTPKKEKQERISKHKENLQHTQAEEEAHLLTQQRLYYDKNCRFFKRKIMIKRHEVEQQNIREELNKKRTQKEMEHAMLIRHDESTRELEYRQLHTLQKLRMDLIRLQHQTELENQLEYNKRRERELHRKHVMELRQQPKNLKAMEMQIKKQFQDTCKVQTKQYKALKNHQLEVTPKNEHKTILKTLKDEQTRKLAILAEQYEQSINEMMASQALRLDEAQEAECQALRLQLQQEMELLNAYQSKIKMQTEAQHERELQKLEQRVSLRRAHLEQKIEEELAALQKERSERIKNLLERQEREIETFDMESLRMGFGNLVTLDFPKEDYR
In short: as §1

Sequence of UniProt Q9HBH9 (Q9HBH9 whole entry, looked up): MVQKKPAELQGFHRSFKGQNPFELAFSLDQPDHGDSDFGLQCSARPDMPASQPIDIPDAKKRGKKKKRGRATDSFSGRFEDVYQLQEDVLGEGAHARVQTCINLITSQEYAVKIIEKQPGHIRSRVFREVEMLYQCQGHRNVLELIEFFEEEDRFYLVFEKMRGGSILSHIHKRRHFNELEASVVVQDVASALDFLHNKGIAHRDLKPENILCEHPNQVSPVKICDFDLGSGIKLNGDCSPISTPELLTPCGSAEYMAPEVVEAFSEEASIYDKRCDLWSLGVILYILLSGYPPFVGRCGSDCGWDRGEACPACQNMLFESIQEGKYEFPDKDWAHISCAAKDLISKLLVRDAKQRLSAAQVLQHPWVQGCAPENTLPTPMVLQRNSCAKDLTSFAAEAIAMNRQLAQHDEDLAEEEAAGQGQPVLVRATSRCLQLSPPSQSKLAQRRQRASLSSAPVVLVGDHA

| Compound | pIC50 ([1]; cell material: Jurkat lysate) | pIC50 ([1]; cell material: Lysate mix) | pIC50 ([2]; cell material: Jurkat lysate) | pIC50 ([2]; cell material: Lysate mix) | pIC50 ([3]; cell material: Jurkat cells) | pIC50 ([3]; cell material: Jurkat lysate) | pIC50 ([3]; cell material: Lysate mix) | pIC50 ([4]; cell material: Jurkat cells) | pIC50 ([4]; cell material: Jurkat lysate) | pIC50 ([4]; cell material: Lysate mix) | pIC50 ([5]; cell material: Jurkat lysate) | pIC50 ([5]; cell material: Lysate mix) | pIC50 ([6]; cell material: Jurkat cells) | pIC50 ([6]; cell material: Jurkat lysate) | pIC50 ([6]; cell material: Lysate mix) | pIC50 [7] | pIC50 ([8]; cell material: Jurkat lysate) | pIC50 ([8]; cell material: Lysate mix) | pIC50 ([9]; cell material: Jurkat cells) | pIC50 ([9]; cell material: Jurkat lysate) | pIC50 ([9]; cell material: Lysate mix) | pIC50 ([10]; cell material: Jurkat cells) | pIC50 ([10]; cell material: Jurkat lysate) | pIC50 ([10]; cell material: Lysate mix) |
| --- | --- | --- | --- | --- | --- | --- | --- | --- | --- | --- | --- | --- | --- | --- | --- | --- | --- | --- | --- | --- | --- | --- | --- | --- |
| O=C(NCCNC(=O)c1cc(Nc2cc(C3CC3)[nH]n2)nc(N2CCN(Cc3ccc(S(=O)(=O)F)cc3)CC2)n1)OC1CC/C=C/CCC1 (centres undefined) | < 4.52 | < 4.52 | < 4.52 | < 4.52 | < 4.52 | < 4.52 | < 4.52 | 5.39 | < 4.52 | < 4.52 | < 4.52 | < 4.52 | 5.38 | < 4.52 | < 4.52 | 5.44 | < 4.52 | < 4.52 | < 4.52 | < 4.52 | < 4.52 | 6.22 | 5.61 | 5.55 |
| Cc1cc(Nc2cc(C(=O)NCCNC(=O)OC3CC/C=C/CCC3)nc(N3CCN(Cc4ccc(S(=O)(=O)F)cc4)CC3)n2)n[nH]1 (centres undefined) |  | < 4.52 |  | < 4.52 |  |  | < 4.52 |  |  | < 4.52 |  | < 4.52 |  |  | < 4.52 | 4.8 |  | < 4.52 |  |  | < 4.52 |  |  | 6.03 |
| CCNC(=O)c1cc(Nc2cc(C3CC3)[nH]n2)nc(N2CCN(Cc3ccc(S(=O)(=O)F)cc3)CC2)n1 |  | < 4.52 |  | 4.73 |  |  | < 4.52 |  |  | 5.97 |  | < 4.52 |  |  | 5.29 | 7.21 |  | < 4.52 |  |  | < 4.52 |  |  | < 4.52 |
